# Data as given in ChEMBL document CHEMBL4507324 (2021).
# Experiments:
# Settings in all cases: Compound concentration 100.0 nM
# [1] = tested on: Mast/stem cell growth factor receptor Kit (Homo sapiens), P10721 [A829P]
# [2] = biological target: Interferon-induced, double-stranded RNA-activated protein kinase (Homo sapiens) (UniProt P19525)
# [3] = biological target: Ribosomal protein S6 kinase alpha-3 (Homo sapiens) (UniProt P51812)
# [4] = biological target: Tyrosine-protein kinase CSK (Homo sapiens) (UniProt P41240)
# [5] = biological target: Glycogen synthase kinase-3 alpha (Homo sapiens) (UniProt P49840)
# [6] = biological target: Dual serine/threonine and tyrosine protein kinase (Homo sapiens) (UniProt Q6XUX3)
# [7] = tested on: Epidermal growth factor receptor (Homo sapiens), P00533 [L858R,T790M]
# [8] = biological target: Serine/threonine-protein kinase WNK1 (Homo sapiens) (UniProt Q9H4A3)
# [9] = biological target: Tyrosine-protein kinase ABL2 (Homo sapiens) (UniProt P42684)
# [10] = biological target: Serine/threonine-protein kinase Nek11 (Homo sapiens) (UniProt Q8NG66)
# [11] = biological target: Transient receptor potential cation channel subfamily M member 6 (Homo sapiens) (UniProt Q9BX84)
# [12] = biological target: Tyrosine-protein kinase Lck (Homo sapiens) (UniProt P06239)
# [13] = biological target: Myosin-IIIa (Homo sapiens) (UniProt Q8NEV4)
# [14] = biological target: Mitogen-activated protein kinase kinase kinase 5 (Homo sapiens) (UniProt Q99683)
# [15] = biological target: Ribosomal protein S6 kinase beta-1 (Homo sapiens) (UniProt P23443)
# [16] = tested on: Tyrosine-protein kinase ABL1 (Homo sapiens), P00519 [F317L]
# [17] = biological target: Serine/threonine-protein kinase WNK2 (Homo sapiens) (UniProt Q9Y3S1)
# [18] = tested on: Epidermal growth factor receptor (Homo sapiens), P00533 [G719S]
# [19] = biological target: Ribosomal protein S6 kinase alpha-3 (Homo sapiens) (UniProt P51812); remark: listed apart in the source
# [20] = biological target: Tyrosine-protein kinase JAK3 (Homo sapiens) (UniProt P52333)
# [21] = biological target: Calcium/calmodulin-dependent protein kinase kinase 2 (Homo sapiens) (UniProt Q96RR4)
# [22] = biological target: Ephrin type-A receptor 7 (Homo sapiens) (UniProt Q15375)
# [23] = biological target: Homeodomain-interacting protein kinase 1 (Homo sapiens) (UniProt Q86Z02)
# [24] = biological target: cGMP-dependent protein kinase 1 (Homo sapiens) (UniProt Q13976)
# [25] = biological target: Cyclin-dependent kinase 14 (Homo sapiens) (UniProt O94921)
# [26] = biological target: Serine/threonine-protein kinase BRSK1 (Homo sapiens) (UniProt Q8TDC3)
# [27] = biological target: Receptor-type tyrosine-protein kinase FLT3 (Homo sapiens) (UniProt P36888)
# [28] = biological target: Tyrosine-protein kinase HCK (Homo sapiens) (UniProt P08631)
# [29] = biological target: Serine/threonine-protein kinase Nek1 (Homo sapiens) (UniProt Q96PY6)
# [30] = biological target: Phosphatidylinositol 3-kinase C2 domain-containing subunit gamma (Homo sapiens) (UniProt O75747)
# [31] = biological target: Serine/threonine-protein kinase tousled-like 1 (Homo sapiens) (UniProt Q9UKI8)
# [32] = tested on: Mast/stem cell growth factor receptor Kit (Homo sapiens), P10721 [L576P]
# [33] = tested on: Epidermal growth factor receptor (Homo sapiens), P00533 [UNDEFINED MUTATION]
# [34] = tested on: Phosphatidylinositol 4,5-bisphosphate 3-kinase catalytic subunit alpha isoform (Homo sapiens), P42336 [H1047Y]
# [35] = biological target: Activin receptor type-2B (Homo sapiens) (UniProt Q13705)
# [36] = biological target: Serine/threonine-protein kinase D3 (Homo sapiens) (UniProt O94806)
# [37] = biological target: Serine/threonine-protein kinase DCLK1 (Homo sapiens) (UniProt O15075)
# [38] = biological target: Serine/threonine-protein kinase N1 (Homo sapiens) (UniProt Q16512)
# [39] = biological target: Protein kinase C theta type (Homo sapiens) (UniProt Q04759)
# [40] = tested on: Receptor-type tyrosine-protein kinase FLT3 (Homo sapiens), P36888 [K663Q]
# [41] = biological target: Myosin light chain kinase 2, skeletal/cardiac muscle (Homo sapiens) (UniProt Q9H1R3)
# [42] = biological target: Dual specificity testis-specific protein kinase 1 (Homo sapiens) (UniProt Q15569)
# [43] = biological target: Dual specificity protein kinase TTK (Homo sapiens) (UniProt P33981)
# [44] = biological target: Serine/threonine-protein kinase TAO2 (Homo sapiens) (UniProt Q9UL54)
# [45] = tested on: Receptor-type tyrosine-protein kinase FLT3 (Homo sapiens), P36888 [N841I]
# Sequence of Ribosomal protein S6 kinase alpha-3 (Homo sapiens) (P51812 whole entry): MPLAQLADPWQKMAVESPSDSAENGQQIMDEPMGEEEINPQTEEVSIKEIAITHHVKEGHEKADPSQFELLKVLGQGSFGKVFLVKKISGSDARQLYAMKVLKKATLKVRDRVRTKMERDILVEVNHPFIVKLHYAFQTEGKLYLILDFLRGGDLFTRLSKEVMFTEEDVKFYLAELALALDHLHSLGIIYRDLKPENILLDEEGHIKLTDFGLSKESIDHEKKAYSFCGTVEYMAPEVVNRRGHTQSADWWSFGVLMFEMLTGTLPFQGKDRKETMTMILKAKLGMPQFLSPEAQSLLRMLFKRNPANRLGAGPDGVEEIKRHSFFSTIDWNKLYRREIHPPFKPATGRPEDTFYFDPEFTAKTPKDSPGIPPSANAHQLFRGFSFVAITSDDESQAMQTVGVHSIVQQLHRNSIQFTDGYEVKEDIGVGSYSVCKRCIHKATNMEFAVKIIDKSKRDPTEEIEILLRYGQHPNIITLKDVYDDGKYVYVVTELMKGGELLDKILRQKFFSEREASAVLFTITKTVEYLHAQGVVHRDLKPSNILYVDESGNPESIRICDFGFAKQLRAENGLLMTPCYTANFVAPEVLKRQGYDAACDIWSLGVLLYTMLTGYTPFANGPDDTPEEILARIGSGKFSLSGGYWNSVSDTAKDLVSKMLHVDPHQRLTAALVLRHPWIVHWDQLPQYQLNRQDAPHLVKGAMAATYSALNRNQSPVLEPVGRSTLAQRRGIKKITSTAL
# Sequence of Dual specificity protein kinase TTK (Homo sapiens) (P33981 whole entry): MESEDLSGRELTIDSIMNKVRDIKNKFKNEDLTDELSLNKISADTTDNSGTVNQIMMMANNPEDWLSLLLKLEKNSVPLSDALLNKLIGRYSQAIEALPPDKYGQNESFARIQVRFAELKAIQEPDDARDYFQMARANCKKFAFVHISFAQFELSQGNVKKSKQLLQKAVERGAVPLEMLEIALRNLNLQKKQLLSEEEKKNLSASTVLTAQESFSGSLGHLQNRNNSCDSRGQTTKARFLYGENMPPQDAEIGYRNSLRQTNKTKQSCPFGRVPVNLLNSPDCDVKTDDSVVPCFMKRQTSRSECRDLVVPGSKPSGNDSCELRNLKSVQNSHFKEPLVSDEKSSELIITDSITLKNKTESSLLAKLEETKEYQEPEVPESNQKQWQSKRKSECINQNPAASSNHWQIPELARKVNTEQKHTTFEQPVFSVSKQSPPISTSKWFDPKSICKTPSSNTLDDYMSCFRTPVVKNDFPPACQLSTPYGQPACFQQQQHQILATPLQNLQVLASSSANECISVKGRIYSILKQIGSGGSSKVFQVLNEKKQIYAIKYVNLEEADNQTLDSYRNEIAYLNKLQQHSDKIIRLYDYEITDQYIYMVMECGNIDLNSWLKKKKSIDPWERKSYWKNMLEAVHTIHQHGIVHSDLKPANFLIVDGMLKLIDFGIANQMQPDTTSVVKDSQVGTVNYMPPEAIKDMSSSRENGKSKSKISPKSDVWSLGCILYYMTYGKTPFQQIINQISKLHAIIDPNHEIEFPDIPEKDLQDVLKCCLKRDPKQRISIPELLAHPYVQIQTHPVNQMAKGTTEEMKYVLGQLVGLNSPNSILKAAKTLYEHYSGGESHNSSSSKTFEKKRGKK
# Sequence of cGMP-dependent protein kinase 1 (Homo sapiens) (Q13976 whole entry): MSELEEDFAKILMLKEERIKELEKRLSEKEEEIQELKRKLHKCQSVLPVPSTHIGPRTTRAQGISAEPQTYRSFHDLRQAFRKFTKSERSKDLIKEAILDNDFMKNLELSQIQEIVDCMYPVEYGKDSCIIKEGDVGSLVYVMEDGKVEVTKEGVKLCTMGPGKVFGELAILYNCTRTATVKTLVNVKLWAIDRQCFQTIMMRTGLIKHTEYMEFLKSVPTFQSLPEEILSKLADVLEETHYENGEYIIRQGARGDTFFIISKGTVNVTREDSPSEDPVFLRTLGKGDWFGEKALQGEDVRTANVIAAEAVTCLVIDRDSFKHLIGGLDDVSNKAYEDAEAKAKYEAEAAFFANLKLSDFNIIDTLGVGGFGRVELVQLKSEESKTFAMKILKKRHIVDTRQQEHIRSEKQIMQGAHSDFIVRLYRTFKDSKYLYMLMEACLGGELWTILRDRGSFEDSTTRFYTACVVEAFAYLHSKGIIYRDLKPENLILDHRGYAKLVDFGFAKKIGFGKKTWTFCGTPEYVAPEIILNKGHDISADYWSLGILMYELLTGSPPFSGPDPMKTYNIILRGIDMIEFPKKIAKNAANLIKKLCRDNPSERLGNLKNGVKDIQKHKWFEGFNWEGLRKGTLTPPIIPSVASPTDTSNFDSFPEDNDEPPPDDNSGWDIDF
# Sequence of Serine/threonine-protein kinase WNK2 (Homo sapiens) (Q9Y3S1 whole entry): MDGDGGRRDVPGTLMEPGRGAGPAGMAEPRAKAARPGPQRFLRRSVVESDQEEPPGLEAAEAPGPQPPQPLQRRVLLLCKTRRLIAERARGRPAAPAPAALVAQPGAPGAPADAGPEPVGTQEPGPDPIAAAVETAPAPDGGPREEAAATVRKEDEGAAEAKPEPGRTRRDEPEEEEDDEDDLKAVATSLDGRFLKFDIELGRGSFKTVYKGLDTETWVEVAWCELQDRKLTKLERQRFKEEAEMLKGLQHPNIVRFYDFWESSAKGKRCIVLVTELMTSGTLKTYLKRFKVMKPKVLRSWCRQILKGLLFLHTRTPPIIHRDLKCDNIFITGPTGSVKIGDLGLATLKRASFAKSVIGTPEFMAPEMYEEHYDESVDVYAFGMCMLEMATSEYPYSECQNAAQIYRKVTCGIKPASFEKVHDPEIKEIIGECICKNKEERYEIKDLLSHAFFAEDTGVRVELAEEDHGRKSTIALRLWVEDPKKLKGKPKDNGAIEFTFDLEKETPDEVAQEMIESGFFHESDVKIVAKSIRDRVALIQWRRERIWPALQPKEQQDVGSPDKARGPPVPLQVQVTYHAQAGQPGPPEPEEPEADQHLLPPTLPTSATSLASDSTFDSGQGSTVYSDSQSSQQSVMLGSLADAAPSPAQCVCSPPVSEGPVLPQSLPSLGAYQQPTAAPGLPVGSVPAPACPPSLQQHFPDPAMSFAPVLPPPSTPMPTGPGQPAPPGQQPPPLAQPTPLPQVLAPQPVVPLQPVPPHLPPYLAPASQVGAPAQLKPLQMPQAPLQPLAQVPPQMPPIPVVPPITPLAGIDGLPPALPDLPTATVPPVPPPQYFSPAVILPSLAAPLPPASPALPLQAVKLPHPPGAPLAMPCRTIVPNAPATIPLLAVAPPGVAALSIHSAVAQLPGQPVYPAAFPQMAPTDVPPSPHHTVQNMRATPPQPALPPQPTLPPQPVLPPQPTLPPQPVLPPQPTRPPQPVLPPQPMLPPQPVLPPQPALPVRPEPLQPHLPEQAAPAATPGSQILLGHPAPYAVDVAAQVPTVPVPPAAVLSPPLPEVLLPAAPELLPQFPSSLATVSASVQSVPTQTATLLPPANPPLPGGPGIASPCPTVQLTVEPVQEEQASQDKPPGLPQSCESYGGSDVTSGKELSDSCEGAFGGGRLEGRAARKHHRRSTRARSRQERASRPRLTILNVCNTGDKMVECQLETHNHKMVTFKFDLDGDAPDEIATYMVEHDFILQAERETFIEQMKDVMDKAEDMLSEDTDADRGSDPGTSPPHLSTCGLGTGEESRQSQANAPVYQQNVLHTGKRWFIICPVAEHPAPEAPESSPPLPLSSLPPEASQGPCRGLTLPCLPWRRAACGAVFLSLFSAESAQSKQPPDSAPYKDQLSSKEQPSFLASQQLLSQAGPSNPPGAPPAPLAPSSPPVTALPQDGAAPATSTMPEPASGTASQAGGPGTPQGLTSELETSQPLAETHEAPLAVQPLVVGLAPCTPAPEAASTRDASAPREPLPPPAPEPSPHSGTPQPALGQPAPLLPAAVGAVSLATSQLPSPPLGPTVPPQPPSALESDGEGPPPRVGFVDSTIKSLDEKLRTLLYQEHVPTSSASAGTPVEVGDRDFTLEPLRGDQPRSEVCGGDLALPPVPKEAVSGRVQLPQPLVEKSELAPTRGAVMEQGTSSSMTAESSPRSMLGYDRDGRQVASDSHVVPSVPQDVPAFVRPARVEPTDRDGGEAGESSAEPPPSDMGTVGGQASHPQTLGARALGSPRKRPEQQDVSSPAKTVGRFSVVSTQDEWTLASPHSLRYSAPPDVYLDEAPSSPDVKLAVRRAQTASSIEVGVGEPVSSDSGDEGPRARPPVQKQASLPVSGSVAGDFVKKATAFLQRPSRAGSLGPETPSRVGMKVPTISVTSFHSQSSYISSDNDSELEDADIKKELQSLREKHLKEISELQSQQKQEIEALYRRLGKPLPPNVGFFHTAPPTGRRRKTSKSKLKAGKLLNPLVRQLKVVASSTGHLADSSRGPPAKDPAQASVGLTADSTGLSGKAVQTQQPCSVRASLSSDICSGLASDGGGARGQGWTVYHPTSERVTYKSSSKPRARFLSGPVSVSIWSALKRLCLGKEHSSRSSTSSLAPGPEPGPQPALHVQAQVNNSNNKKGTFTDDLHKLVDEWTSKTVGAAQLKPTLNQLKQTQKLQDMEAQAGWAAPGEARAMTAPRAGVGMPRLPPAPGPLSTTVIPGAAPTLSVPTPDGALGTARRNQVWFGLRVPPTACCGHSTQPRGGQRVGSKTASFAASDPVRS
# Sequence of Ribosomal protein S6 kinase beta-1 (Homo sapiens) (P23443 whole entry, looked up): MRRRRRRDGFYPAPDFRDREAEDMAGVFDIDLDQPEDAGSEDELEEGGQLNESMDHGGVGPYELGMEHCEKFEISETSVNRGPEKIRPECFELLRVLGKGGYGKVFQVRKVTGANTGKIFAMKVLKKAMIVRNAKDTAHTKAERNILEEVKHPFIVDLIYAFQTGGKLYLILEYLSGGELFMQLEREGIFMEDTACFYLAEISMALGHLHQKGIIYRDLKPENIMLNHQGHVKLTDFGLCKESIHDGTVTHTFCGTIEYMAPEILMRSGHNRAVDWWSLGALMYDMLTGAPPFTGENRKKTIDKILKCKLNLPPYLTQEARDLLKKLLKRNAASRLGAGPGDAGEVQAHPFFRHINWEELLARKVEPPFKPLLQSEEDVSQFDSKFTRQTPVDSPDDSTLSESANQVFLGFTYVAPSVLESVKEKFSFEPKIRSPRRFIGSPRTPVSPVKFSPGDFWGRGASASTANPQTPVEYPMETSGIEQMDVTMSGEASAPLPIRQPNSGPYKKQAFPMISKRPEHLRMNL
smiles,measurement,setting,value
CS(=O)(=O)N1CCCC(NC(=O)[C@H](CCC2CCCCC2)NC(=O)c2ccc(CNc3ncnc4c3nnn4-c3ccccc3)cc2)C1 (stereo not given in full) [SR-301],residual activity,[1],100%
same,residual activity,[2],55%
same,residual activity,[3],100%
same,residual activity,[4],91%
same,residual activity,[5],100%
same,residual activity,[6],80%
same,residual activity,[7],84%
same,residual activity,[8],100%
same,residual activity,[9],100%
same,residual activity,[10],100%
same,residual activity,[11],96%
same,residual activity,[12],100%
same,residual activity,[13],97%
same,residual activity,[14],100%
same,residual activity,[15],100%
same,residual activity,[16],91%
same,residual activity,[17],100%
same,residual activity,[18],72%
same,residual activity,[19],100%
same,residual activity,[20],100%
same,residual activity,[21],78%
same,residual activity,[22],98%
same,residual activity,[23],100%
same,residual activity,[24],95%
same,residual activity,[25],100%
same,residual activity,[26],100%
same,residual activity,[27],82%
same,residual activity,[28],100%
same,residual activity,[29],51%
same,residual activity,[30],81%
same,residual activity,[31],94%
same,residual activity,[32],78%
same,residual activity,[33],66%
same,residual activity,[34],100%
same,residual activity,[35],83%
same,residual activity,[36],100%
same,residual activity,[37],100%
same,residual activity,[38],98%
same,residual activity,[39],90%
same,residual activity,[40],94%
same,residual activity,[41],90%
same,residual activity,[42],100%
same,residual activity,[43],91%
same,residual activity,[44],93%
same,residual activity,[45],99%
CS(=O)(=O)N1CCCC(NC(=O)[C@H](CCC2CCCCC2)NC(=O)c2ccc(CNC(=O)c3cnc4ccccn34)cc2)C1 (stereo not given in full) [SR-302],residual activity,[1],66%
same,residual activity,[2],47%
same,residual activity,[3],100%
same,residual activity,[4],100%
same,residual activity,[5],100%
same,residual activity,[6],100%
same,residual activity,[7],100%
same,residual activity,[8],99%
same,residual activity,[9],56%
same,residual activity,[10],94%
same,residual activity,[11],100%
same,residual activity,[12],83%
same,residual activity,[13],99%
same,residual activity,[14],100%
same,residual activity,[15],100%
same,residual activity,[16],100%
same,residual activity,[17],100%
same,residual activity,[18],100%
same,residual activity,[19],100%
same,residual activity,[20],69%
same,residual activity,[21],88%
same,residual activity,[22],96%
same,residual activity,[23],100%
same,residual activity,[24],100%
same,residual activity,[25],100%
same,residual activity,[26],72%
same,residual activity,[27],82%
same,residual activity,[28],100%
same,residual activity,[29],68%
same,residual activity,[30],100%
same,residual activity,[31],72%
same,residual activity,[32],55%
same,residual activity,[33],99%
same,residual activity,[34],84%
same,residual activity,[35],100%
same,residual activity,[36],90%
same,residual activity,[37],99%
same,residual activity,[38],72%
same,residual activity,[39],97%
same,residual activity,[40],100%
same,residual activity,[41],90%
same,residual activity,[42],93%
same,residual activity,[43],91%
same,residual activity,[44],91%
same,residual activity,[45],67%
